In ChEMBL document CHEMBL1201862, “PubChem BioAssay data set” (2004):
Active and inactive are the calls of the source.

Tests used:
[1] = system: Vero; test: host cell cytotoxicity of antiviral hits, dose response, cytotoxicity control for West Nile virus antiviral project, secondary assay (AID 1650); format: functional; settings: Chlorocebus sabaeus
[2] = system: HeLa; test: HeLa cell cytotoxicity, dose response, cytotoxicity control, ATP luminescence, cherry-pick samples (AID 687004); format: functional, cell-based; settings: Homo sapiens
[3] = molecular target: T1, Leucine aminopeptidase (Plasmodium falciparum 3D7, UniProt Q8IL11); test: P. falciparum M17LAP inhibitors, primary screen, biochemical, fluorogenic H-Leu-NHMec substrate, 1536-well (AID 1619); format: functional
T1 sequence (Q8IL11 whole entry): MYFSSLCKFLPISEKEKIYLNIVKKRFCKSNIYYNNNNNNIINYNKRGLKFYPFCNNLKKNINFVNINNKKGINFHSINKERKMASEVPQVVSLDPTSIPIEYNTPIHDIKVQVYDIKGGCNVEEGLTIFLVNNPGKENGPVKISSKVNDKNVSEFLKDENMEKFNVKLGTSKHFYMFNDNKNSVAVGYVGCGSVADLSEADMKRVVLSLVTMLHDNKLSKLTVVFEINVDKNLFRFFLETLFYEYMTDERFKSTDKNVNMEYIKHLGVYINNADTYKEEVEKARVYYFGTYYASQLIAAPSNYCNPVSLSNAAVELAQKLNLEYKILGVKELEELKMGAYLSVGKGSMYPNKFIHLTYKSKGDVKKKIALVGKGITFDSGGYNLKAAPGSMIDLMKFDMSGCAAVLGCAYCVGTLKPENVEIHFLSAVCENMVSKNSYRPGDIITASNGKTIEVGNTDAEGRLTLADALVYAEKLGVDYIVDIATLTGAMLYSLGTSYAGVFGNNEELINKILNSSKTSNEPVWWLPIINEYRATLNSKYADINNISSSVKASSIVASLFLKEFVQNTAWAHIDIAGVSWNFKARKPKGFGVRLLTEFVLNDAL

[4] = molecular target: T2, Aspartyl aminopeptidase (Plasmodium falciparum 3D7, UniProt Q8I2J3); test: Counterscreen for inhibitors of M1 and M17 aminopeptidases: QFRET-based biochemical high throughput dose response assay for inhibitors of the Plasmodium falciparum M18 Aspartyl Aminopeptidase (PFM18AAP). [Related PubChem assays: 1619 (Screening assay (M17LAP inhibitors).), 1445 (Screening assay (M1AAP inhibitors).)]
T2 sequence (Q8I2J3 whole entry): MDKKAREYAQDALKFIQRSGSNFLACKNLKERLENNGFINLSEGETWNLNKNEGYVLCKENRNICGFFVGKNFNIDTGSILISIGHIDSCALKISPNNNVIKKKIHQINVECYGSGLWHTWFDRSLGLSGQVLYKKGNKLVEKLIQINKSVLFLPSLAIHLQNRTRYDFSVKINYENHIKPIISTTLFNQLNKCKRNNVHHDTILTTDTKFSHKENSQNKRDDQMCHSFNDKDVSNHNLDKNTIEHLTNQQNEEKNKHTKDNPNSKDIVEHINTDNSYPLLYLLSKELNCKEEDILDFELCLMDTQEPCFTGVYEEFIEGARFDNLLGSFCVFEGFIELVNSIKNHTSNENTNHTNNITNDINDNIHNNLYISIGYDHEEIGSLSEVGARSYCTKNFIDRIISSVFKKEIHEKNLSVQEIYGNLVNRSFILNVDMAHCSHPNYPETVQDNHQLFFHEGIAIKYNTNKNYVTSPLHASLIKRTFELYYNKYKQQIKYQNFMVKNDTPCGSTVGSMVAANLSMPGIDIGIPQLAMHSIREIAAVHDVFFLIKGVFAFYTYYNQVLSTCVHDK

[5] = molecular target: Procathepsin L (Homo sapiens, UniProt P07711); test: cathepsin L inhibitors, dose response, counter-screen for M1/M17 aminopeptidase inhibitor project, biochemical, QFRET, 1536-well (AID 2214)
[6] = inhibitors of intracellular T. cruzi replication, confirmation, NIH3T3 host cells, beta-gal luminescence (AID 2044); format: functional, cell-based;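 further: intracellular parasites grown in NIH/3T3 mouse fibroblasts as host cells; luminescent beta-galactosidase reporter signal from transgenic T. cruzi replicating inside host cells; inhibitors lower the luminescence signal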
[7] = cytotoxicity toward NIH3T3 fibroblasts, dose response, counter-screen, cell-based, ATP luminescence, mouse fibroblasts (AID 2010); format: functional;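 further: cells exposed to compound for about 90 hours before reading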
[8] = system: Streptococcus sp. 'group A'; test: growth inhibition of control SK(-) GAS strain, dose response, counter-screen for streptokinase expression inhibitor project, luminescence, kanamycin, BacTiterGlo, confirmation (AID 1900); format: functional, organism-based
[9] = molecular target: T3, Streptokinase A (Streptococcus pyogenes serotype M1, UniProt P10520); test: S. pyogenes streptokinase expression inhibitors, potency, dose response, plasminogen activation absorbance, OD405 (AID 1914); format: functional, Streptococcus pyogenes M1 GAS;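 further: secreted streptokinase activity via plasminogen activation per viability signal from cell pellet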
T3 sequence (P10520 whole entry): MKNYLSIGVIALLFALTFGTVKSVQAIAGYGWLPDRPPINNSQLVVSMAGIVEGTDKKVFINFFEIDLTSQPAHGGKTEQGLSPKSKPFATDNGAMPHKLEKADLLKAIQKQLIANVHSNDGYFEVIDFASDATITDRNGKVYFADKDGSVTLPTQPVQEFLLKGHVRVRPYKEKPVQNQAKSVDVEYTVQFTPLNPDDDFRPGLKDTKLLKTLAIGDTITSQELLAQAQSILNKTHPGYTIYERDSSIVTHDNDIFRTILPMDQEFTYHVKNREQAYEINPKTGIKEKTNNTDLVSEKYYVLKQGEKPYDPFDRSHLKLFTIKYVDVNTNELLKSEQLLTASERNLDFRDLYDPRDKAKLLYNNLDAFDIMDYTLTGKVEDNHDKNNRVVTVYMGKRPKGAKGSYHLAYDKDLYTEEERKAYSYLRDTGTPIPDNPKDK

[10] = system: Streptococcus; test: Group A Streptococcus viability loss, dose response, counter-screen for streptokinase expression inhibitor project, luminescence, BacTiterGlo (AID 1915); format: functional, organism-based;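 further: potency for reduction of bacterial viability or growth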
[11] = molecular target: Disintegrin and metalloproteinase domain-containing protein 17 (Homo sapiens, UniProt P78536); test: exosite inhibitors of ADAM17, dose response, biochemical (AID 743260)
[12] = ADAM10 protease inhibitors, dose response, selectivity assay for ADAM17 exosite inhibitor project, biochemical, FRET peptide substrate, recombinant human ADAM10 (AID 743259);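 further: ADAM10 enzyme cleaving a FRET peptide substrate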
[13] = molecular target: T4, Apoptotic protease-activating factor 1 (Homo sapiens, UniProt O14727); format: functional
T4 sequence (O14727 whole entry): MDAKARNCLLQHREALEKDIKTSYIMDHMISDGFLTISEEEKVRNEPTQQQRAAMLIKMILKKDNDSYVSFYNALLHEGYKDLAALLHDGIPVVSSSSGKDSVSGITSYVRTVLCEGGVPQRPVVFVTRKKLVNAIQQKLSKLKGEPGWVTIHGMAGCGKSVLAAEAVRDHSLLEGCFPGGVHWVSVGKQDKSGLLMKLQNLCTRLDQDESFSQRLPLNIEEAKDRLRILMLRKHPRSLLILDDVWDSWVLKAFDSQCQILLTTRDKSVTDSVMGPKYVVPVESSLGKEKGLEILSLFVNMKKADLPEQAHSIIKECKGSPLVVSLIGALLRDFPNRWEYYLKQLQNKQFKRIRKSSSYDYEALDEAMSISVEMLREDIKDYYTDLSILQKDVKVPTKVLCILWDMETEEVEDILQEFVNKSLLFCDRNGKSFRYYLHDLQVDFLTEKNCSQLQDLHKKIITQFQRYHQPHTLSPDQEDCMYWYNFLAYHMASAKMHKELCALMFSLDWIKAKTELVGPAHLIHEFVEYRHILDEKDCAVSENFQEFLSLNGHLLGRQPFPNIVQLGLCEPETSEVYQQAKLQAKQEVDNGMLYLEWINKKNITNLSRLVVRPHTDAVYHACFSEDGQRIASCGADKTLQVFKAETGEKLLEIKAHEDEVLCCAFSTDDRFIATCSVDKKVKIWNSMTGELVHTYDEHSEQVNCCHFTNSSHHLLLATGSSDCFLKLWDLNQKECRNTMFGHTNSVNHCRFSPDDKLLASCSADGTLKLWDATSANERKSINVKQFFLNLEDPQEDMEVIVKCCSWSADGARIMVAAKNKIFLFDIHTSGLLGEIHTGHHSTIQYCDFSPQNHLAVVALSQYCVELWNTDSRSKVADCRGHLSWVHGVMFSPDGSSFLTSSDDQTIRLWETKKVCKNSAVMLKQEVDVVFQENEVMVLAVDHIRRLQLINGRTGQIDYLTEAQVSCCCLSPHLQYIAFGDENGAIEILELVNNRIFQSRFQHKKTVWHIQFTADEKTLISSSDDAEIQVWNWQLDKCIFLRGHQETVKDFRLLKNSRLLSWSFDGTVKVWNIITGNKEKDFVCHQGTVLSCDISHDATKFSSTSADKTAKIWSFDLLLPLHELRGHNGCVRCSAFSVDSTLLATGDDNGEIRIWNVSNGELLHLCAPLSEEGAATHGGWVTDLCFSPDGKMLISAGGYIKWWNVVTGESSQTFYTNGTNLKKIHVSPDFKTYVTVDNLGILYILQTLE

Chain of Procathepsin L (P07711 whole entry): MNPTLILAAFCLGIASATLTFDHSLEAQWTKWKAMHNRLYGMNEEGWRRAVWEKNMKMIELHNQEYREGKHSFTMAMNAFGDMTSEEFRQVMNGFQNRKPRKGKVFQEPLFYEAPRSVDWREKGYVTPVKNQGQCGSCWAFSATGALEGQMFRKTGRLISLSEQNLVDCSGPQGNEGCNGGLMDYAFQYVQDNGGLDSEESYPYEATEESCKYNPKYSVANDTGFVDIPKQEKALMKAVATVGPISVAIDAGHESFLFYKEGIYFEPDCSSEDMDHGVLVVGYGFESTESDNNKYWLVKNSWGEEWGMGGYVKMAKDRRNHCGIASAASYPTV
Chain of Disintegrin and metalloproteinase domain-containing protein 17 (P78536 whole entry, the tested form may be a part): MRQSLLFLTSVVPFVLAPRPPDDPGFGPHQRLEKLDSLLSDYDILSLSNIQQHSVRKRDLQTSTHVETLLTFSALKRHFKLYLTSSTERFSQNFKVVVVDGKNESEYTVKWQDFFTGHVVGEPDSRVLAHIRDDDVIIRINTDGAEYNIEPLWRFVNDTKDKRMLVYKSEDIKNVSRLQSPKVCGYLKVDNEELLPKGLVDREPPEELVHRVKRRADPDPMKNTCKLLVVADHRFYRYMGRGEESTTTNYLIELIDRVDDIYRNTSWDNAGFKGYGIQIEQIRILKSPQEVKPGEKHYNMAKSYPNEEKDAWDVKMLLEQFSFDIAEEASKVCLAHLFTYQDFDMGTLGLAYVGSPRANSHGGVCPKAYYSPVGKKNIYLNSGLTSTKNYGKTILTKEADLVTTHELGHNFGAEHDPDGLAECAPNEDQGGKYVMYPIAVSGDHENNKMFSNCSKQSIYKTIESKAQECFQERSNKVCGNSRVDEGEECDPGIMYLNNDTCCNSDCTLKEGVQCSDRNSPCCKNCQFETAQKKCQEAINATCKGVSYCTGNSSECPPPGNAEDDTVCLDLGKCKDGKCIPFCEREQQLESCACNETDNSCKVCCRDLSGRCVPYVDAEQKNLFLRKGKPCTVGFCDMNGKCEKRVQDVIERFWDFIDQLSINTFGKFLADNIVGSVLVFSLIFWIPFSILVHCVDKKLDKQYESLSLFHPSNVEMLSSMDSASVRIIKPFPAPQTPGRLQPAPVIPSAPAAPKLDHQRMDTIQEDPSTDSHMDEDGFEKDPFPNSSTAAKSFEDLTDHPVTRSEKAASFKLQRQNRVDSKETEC

O=C1COc2ccc(C(=O)CSc3nc4ccccc4c(=O)n3-c3ccc(Cl)c(Cl)c3)cc2N1
CC50 [1]: 16.6 µM (active)

COc1cc(C(=O)Oc2ccccc2N)cc(OC)c1OC
AC50 [2]: > 52 µM (inactive)

O=C(CCN1C(=O)/C(=C/c2ccc(F)cc2)SC1=S)N[C@@H](CO)Cc1ccccc1
CC50 [1]: 49.9 µM (active)

CCc1ccc(Nc2nnc(SC3CCOC3=O)s2)cc1 (stereo unspecified)
IC50 [3]: 2.64 µM (active) | IC50 [4]: > 73.5 µM (not active) | IC50 [5]: > 59.6 µM (not active)

CC(C)(CN=C(S)NCCc1ccccc1)CN=C(S)NCCc1ccccc1
CC50 [1]: 23.7 µM (active) | EC50 [6]: 3.35 µM (active) | EC50 [7]: > 60 µM (not active)

COc1ccc(OC)c(NC(=O)C2C(C(=O)O)C3(Cl)C(Cl)=C(Cl)C2(Cl)C3(Cl)Cl)c1 (stereo unspecified)
IC50 [3]: < 1 µM (active) | IC50 [4]: > 73.5 µM (not active) | IC50 [5]: > 59.6 µM (not active)

CC1CCCCN1C(=O)CSc1nc(C2CC2)nc2c1cnn2-c1ccccc1 (stereo unspecified)
AC50 [2]: > 52 µM (inactive)

COc1ccc(NC(S)=Nc2nc(CC(=O)Nc3ccccc3OC)cs2)cc1
EC50 [8]: 6.09 µM (active) | EC50 [9]: > 150 µM (not active) | EC50 [10]: 17.3 µM (active) | IC50 [11]: > 69.5 µM (inactive) | IC50 [12]: > 2.58 µM (active)

COC(=O)C1=C(c2ccc(F)cc2OCc2ccccc2)C[C@@H]2CC[C@H]1N2C(=O)NCc1cccc(C(F)(F)F)c1
IC50 [11]: > 69.5 µM (inactive) | IC50 [12]: > 69.5 µM (inactive)

COCCN(Cc1ccccc1)C(=O)c1cccc(S(=O)(=O)N2CCN(c3ccccc3)CC2)c1
IC50 [13]: > 100 µM (inactive)
